This assay has as its system Staphylococcus aureus. The assay can be described thus: Antibacterial activity against methicillin-resistant Staphylococcus aureus COL infected New Zealand white rabbit endocarditis model assessed as reduction in mean aortic vegetation titer at 30 mg/kg, iv twice daily after 4 days. It counts as functional, Aorta.

Regarding `CN[C@H](CC(C)C)C(=O)N[C@H]1C(=O)N[C@@H](CC(N)=O)C(=O)N[C@H]2C(=O)N[C@H]3C(=O)N[C@H](C(=O)N[C@H](C(=O)O)c4cc(O)cc(O)c4-c4cc3ccc4O)[C@H](O)c3ccc(c(Cl)c3)Oc3cc2cc(c3O[C@@H]2O[C@H](CO)[C@@H](O)[C@H](O)[C@H]2O[C@H]2C[C@](C)(N)[C@H](O)[C@H](C)O2)Oc2ccc(cc2Cl)[C@H]1O` [VANCOMYCIN], the log10CFU/g came out at 3.4.

These data come from ChEMBL document CHEMBL1154419, “Pharmacodynamic effects of telavancin against methicillin-resistant and methicillin-susceptible Staphylococcus aureus strains in the presence of human albumin or serum and in an in vitro kinetic model” (Antimicrob Agents Chemother, 2007).
